Assay results published in patent US11254702B2, “Thionyl tetrafluoride modified compounds and uses” (The Scripps Research Institute, priority 2016, dated 2022).

System: zebrafish embryos
Assay: Zebrafish embryo phenotype after incubation with compound
Format: in vivo
Conditions: zebrafish embryos treated at concentrations of 10 and 20 μM; micrographic images (FIG. 14 A, B)
Protocol: FIG. 14 provides micrographic images of zebrafish embryos: (A) and (B) Phenotypes generated by incubating zebrafish embryos with Compound 2-23 at various concentration; (C) Lysates from Compound 2-23 treated or untreated embryos at 24 hpf were reacted with biotin-azide, pull-down with streptavidin beads and analyzed using SDS-PAGE.
FIG. 14 provides micrographic images of zebrafish embryos. Panels (A) and (B) illustrate phenotypes generated by incubating zebrafish embryos with Compound 2-23 at various concentrations. […] Panel (C) provides SDS-PAGE images of lysates from Compound 2-23 treated or untreated embryos at 24 hours post fertilization (hpf). The lysates were treated with biotin-azide and a copper(I) catalyst to react with the terminal alkyne via a copper-catalyzed azide-alkyne Click reaction and thereby attach biotin to any Compound 2-23 that may have been bound to a protein in the lysate. The biotinated lysate was then pulled-down with streptavidin beads and analyzed using SDS-PAGE.

Row | Structure (SMILES) | phenotypical changes in the embryos
1 | C#CCOC[C@H]1O[C@@H](n2cc(C)c(=O)[nH]c2=O)C[C@H]1N=S(=O)(F)F [Compound 2-23, ((2S,3S,5R)-5-(5-Methyl-2,4-dioxo-3,4-dihydropyrimidin-1(2H)-yl)-2-((prop-2-yn-1-yloxy)methyl)tetrahydrofuran-3-yl)sulfurimidoyl Difluoride] | significant phenotypical changes

System: not given
Assay: not given
Conditions: not given

Row | melting point | Structure (SMILES)
2 | 139 to 141 °C | C#Cc1ccc(N=S(=O)(Oc2ccccc2O)N2CCN(C(=O)OC(C)(C)C)CC2)cc1 (stereo not drawn) [Compound 10-2, tert-Butyl 4-(N-(4-ethynylphenyl)-S-(2-hydroxyphenoxy)sulfonimidoyl)piperazine-1-carboxylate]
3 | 105 to 106 °C | C#CCOC[C@H]1O[C@@H](n2cc(C)c(=O)[nH]c2=O)C[C@@H]1N=S(=O)(F)N1CCC1 (some centres unmarked)
4 | 129 °C | C#Cc1ccc(N=S(=O)(Oc2ccc(-c3ccccc3)cc2)Oc2ccc(-c3ccccc3)cc2)cc1 [Compound 7-2, Di([1,1′-biphenyl]-4-yl) (4-ethynylphenyl)sulfurimidate]
5 | 93 °C | C#Cc1ccc(N=S(=O)(Oc2ccccc2O)N2CCCCC2)cc1 (centres unmarked) [Compound 10-1, 2-Hydroxyphenyl N-(4-ethynylphenyl)piperidine-1-sulfonimidate]
6 | 138 to 139 °C | C#Cc1ccc(N=S2(=O)Oc3ccccc3-c3ccccc3O2)cc1 [Compound 9-4, 6-((4-Ethynylphenyl)imino)-6λ^4-dibenzo[d,f][1,3,2]dioxathiepine 6-oxide]
7 | 139 to 140 °C | O=C1[C@@H]([C@H](c2ccccc2)N2CCN(c3ccc(F)cc3)CC2)N=S(=O)(F)N1C1CCCCC1 (stereo partly drawn) [Compound 2-25, (4R)-2-Cyclohexyl-1-fluoro-4-((S)-(4-(4-fluorophenyl)piperazin-1-yl)(phenyl)methyl)-2,4-dihydro-3H-1λ^6,2,5-thiadiazol-3-one 1-oxide]
8 | 163 to 165 °C | C#Cc1ccc(NS(=O)(=O)N[C@@H](C)C(=O)O)cc1 [Compound 4-2, (N-(4-Ethynylphenyl)sulfamoyl)-L-alanine]
9 | 97 to 98 °C | C#Cc1ccc(N=S2(=O)Oc3ccccc3O2)cc1 [Compound 9-1, 2-((4-Ethynylphenyl)imino)-2λ^4-benzo[d][1,3,2]dioxathiole 2-oxide]
10 | 70 °C | C#Cc1ccc(N=S(=O)(F)N2CCC(=O)CC2)cc1 (centres unmarked)
11 | 113 to 115 °C | C#Cc1ccc(NS(=O)(=O)NCC(=O)O)cc1 [Compound 4-1, (N-(4-ethynylphenyl)sulfamoyl)glycine]
12 | 94 to 95 °C | C#CCOC[C@H]1O[C@@H](n2cc(C)c(=O)[nH]c2=O)C[C@@H]1N=S(=O)(F)Oc1ccc2c(c1)CC[C@H]1C3CCC(=O)[C@@]3(C)CC[C@H]21 (some centres unmarked)
13 | 94 to 95 °C | C#Cc1ccc(N=S(=O)(F)Oc2ccc(-c3ccccc3)cc2)cc1 (centres unmarked) [Compound 6-1, [1,1′-biphenyl]-4-yl (4-ethynylphenyl)sulfurofluoridoimidate]
14 | 101 °C | C#Cc1ccc(N=S2(=O)Oc3c(C)ccc(C)c3O2)cc1 [Compound 9-2, 2-((4-Ethynylphenyl)imino)-4,7-dimethyl-2λ^4-benzo[d][1,3,2]dioxathiole 2-oxide]
